Test results reported in PMC7827406, “Structure–Activity Relationship (SAR) Study of Spautin-1 to Entail the Discovery of Novel NEK4 Inhibitors” (International Journal of Molecular Sciences, 2021).
Read-outs that look alike come from different tables or passages of the source.

What was measured:
Assay in all cases: biochemical
Set-up in all cases: Eurofins KinaseProfiler full panel at Km ATP, residual kinase activity (%) relative to DMSO
LATS2(h) = biological target: T1, LATS2(h) (Homo sapiens, UniProt Q9NRM7)
T1 sequence (Q9NRM7 1-1088): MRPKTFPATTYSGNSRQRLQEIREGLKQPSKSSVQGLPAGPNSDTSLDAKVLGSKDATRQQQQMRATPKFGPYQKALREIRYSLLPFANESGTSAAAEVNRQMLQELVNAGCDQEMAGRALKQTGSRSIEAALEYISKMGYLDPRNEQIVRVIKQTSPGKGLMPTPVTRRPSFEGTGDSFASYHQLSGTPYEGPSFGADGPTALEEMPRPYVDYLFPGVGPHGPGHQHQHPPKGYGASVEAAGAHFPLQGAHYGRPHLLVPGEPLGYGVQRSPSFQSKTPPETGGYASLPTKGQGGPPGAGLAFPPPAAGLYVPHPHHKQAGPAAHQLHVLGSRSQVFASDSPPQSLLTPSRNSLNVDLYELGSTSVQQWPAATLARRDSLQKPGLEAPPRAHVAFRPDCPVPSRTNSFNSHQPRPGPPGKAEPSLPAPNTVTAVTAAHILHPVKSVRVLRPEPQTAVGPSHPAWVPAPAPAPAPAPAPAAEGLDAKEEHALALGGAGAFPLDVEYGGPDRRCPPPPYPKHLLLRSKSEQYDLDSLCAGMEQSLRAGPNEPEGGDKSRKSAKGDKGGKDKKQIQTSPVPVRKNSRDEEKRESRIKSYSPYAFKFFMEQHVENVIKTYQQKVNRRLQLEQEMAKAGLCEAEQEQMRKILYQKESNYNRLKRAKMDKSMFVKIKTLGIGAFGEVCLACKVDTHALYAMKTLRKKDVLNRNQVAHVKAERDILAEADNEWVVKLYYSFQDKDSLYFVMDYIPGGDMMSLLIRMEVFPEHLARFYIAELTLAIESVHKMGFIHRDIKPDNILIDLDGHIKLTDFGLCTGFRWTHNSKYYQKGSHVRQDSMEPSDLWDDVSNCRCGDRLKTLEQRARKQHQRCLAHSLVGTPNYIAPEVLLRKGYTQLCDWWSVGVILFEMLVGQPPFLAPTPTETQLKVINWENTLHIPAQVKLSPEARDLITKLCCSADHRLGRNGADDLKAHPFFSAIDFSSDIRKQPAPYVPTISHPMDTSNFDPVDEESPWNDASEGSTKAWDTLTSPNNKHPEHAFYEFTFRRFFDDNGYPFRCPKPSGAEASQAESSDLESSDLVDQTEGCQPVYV
How it was run: (§1)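 Two 10 µM single-concentration screens were run: a competition-binding screen, in which DNA-tagged kinase bound to immobilized ligands was quantified by qPCR, and a radiometric activity panel at Km ATP. Each is expressed as residual kinase activity (%).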

PAK2(h) = PAK2(h) (Homo sapiens, UniProt Q13177)
How it was run: as §1

PKCζ(h) = biological target: T2, PKCζ(h) (Homo sapiens, UniProt Q05513)
T2 construct: gene PRKCZ
T2 sequence (Q05513 1-592): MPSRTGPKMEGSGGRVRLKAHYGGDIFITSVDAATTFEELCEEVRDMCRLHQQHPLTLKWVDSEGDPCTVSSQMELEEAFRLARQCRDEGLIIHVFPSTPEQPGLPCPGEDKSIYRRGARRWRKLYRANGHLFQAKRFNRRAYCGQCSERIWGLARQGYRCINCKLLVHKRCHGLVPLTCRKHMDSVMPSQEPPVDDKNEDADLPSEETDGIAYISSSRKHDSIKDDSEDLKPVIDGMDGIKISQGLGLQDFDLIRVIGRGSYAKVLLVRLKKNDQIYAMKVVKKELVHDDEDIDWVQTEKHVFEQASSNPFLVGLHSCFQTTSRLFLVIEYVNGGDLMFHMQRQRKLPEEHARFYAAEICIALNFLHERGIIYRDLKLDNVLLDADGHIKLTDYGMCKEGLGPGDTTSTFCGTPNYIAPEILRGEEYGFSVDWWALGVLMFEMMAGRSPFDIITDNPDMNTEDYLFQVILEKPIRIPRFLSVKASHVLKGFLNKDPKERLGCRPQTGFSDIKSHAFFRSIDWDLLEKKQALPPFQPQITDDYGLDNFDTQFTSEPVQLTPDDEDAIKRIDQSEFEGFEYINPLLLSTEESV
How it was run: as §1

[1] = read-out: Residual activity (%) 5ay
[2] = read-out: Residual activity (%) Spautin-1 5aa
[3] = read-out: Residual activity (%) 5at
[4] = read-out: Residual activity (%) 5as

PAK2(h), sequence (Q13177 whole entry): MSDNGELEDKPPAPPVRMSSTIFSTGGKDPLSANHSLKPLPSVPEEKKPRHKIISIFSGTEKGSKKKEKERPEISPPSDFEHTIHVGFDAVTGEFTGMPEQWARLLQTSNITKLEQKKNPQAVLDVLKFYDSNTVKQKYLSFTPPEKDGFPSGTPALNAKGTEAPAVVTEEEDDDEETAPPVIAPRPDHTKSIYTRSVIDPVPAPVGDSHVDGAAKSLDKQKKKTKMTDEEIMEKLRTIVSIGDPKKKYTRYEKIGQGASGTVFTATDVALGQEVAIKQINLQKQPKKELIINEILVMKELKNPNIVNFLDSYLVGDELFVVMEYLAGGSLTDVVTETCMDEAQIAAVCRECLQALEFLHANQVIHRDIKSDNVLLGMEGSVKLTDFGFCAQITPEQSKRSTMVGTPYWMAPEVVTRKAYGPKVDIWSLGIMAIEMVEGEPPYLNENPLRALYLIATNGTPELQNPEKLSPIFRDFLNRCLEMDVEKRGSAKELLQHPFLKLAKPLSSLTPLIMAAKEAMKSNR

SMILES: COc1ccc2ncnc(Nc3cccc(F)c3)c2c1 [5ay, N-(3-Fluorophenyl)-6-Methoxy-4-Quinazolinamine]
- remaining activity at 10 µM (LATS2(h); [1]): 72%
- remaining activity at 10 µM (PAK2(h); [1]): 98%
- remaining activity at 10 µM (PKCζ(h); [1]): 91%

SMILES: Fc1ccc(CNc2ncnc3ccc(F)cc23)cc1 [5aa, 6-Fluoro-N-(4-fluorobenzyl)-4-Quinazolinamine]
- remaining activity at 10 µM (LATS2(h); [2]): 94%
- remaining activity at 10 µM (PAK2(h); [2]): 87%
- remaining activity at 10 µM (PKCζ(h); [2]): 85%

SMILES: Fc1ccc2ncnc(NCCc3ccc(Cl)cc3)c2c1 [5at, N-[2-(4-Chlorophenyl)Ethyl]-6-Fluoro-4-Quinazolinamine]
- remaining activity at 10 µM (LATS2(h); [3]): 75%
- remaining activity at 10 µM (PAK2(h); [3]): 78%
- remaining activity at 10 µM (PKCζ(h); [3]): 71%

SMILES: Fc1ccc(CCNc2ncnc3ccc(F)cc23)cc1 [5as, 6-Fluoro-N-[2-(4-Fluorophenyl)Ethyl]-4-Quinazolinamine]
- remaining activity at 10 µM (LATS2(h); [4]): 74%
- remaining activity at 10 µM (PAK2(h); [4]): 94%
- remaining activity at 10 µM (PKCζ(h); [4]): 75%
